{
  "source": "patent US11084852B2",
  "about": "“Ubiquitin interacting motif peptides as therapeutics” (OKLAHOMA MEDICAL RESEARCH FOUNDATION, priority 2015, dated 2021)",
  "test": "Toxicity analysis of UPI peptide, plasma biomarkers",
  "format": "in vivo, mice",
  "set-up": "ALB: unit not given here",
  "conditions": "for ALB: wild type mice, i.v. every second day up to 3 months",
  "description": "Age and gender matched wild type mice were intravenously injected with PBS (Control) or different concentration of UPI peptide every second day for up to 3 months. Plasma biochemical parameters were evaluated by the UT-Southwestern Medical Center Core Facility in Dallas, Tex.",
  "note": "Positions of bridges follow the written chain, without caps; N, C: chain ends. Non-standard residues stand in square brackets, D forms with d. Residues, ends and D or L forms follow the SMILES beside them.",
  "data": [
    {"compound": "CC[C@@H](C)[C@@H](NC(=O)[C@@H](CS)NC(=O)CNC(=O)[C@@H](CCSC)NC(=O)[C@@H](CCC(=O)O)NC(=O)[C@@H](CCC(=O)O)NC(=O)[C@@H](CCCCN)NC(=O)[C@@H](CO)NC(=O)[C@@H](CCSC)NC(=O)[C@@H](C)NC(=O)[C@@H](CC(C)C)NC(=O)[C@@H](C)NC(=O)[C@@H](CC(C)C)NC(=O)[C@@H](CCC(N)=O)NC(=O)[C@@H](CC(C)C)NC(=O)[C@@H](CCC(N)=O)NC(=O)[C@@H](CC(C)C)NC(=O)[C@@H](CCC(=O)O)NC(=O)[C@@H](CCC(=O)O)NC(=O)[C@@H](CCC(=O)O)NC(=O)CNC(=O)[C@H](N)CO)C(=O)N[C@H](CCCCN)C(=O)N[C@H](CO)C(=O)N[C@H](CCCCN)C(=O)N[C@H](CCCNC(=N)N)C(=O)N[C@H](CCCCN)C(=O)N[C@@H]1CSSC[C@H](C(=O)O)NC(=O)[C@@H](CC(=O)O)NC(=O)[C@H]2CCCN2C(=O)CNC(=O)[C@@H](CCCCN)NC(=O)[C@@H](CC(=O)O)NC(=O)CNC(=O)[C@@H](CCCNC(=N)N)NC1=O", "note": "[UPI peptide] (H-[dS]G[dE][dE][dE][dL][dQ][dL][dQ][dL][dA][dL][dA][dM][dS][dK][dE][dE][dM]G[dC][dI][dK][dS][dK][dR][dK][dC][dR]G[dD][dK]G[dP][dD][dC]-OH; disulfide 28-36; N-terminus and C-terminus assumed)", "values": [
      {"measurement": "ALT", "setting": "10 mg/kg", "result": "63.5 ± 10.8", "unit": "U/L"},
      {"measurement": "AST", "setting": "10 mg/kg", "result": "62.3 ± 3.6", "unit": "U/L"},
      {"measurement": "BUN", "setting": "10 mg/kg", "result": "18.0 ± 0.8", "unit": "mg/dL"},
      {"measurement": "CK", "setting": "10 mg/kg", "result": "163.5 ± 50.0", "unit": "U/L"},
      {"measurement": "CREA", "setting": "10 mg/kg", "result": "0.173 ± 0.02", "unit": "mg/dL"},
      {"measurement": "GGT", "setting": "10 mg/kg", "result": "<5", "unit": "U/L"},
      {"measurement": "LDH", "setting": "10 mg/kg", "result": "397.8 ± 26.0", "unit": "U/L"},
      {"measurement": "TBIL", "setting": "10 mg/kg", "result": "<0.01", "unit": "mg/dL"},
      {"measurement": "ALT", "setting": "25 mg/kg", "result": "65.3 ± 4.0", "unit": "U/L"},
      {"measurement": "AST", "setting": "25 mg/kg", "result": "55.0 ± 5.3", "unit": "U/L"},
      {"measurement": "BUN", "setting": "25 mg/kg", "result": "18.7 ± 2.5", "unit": "mg/dL"},
      {"measurement": "CK", "setting": "25 mg/kg", "result": "165.7 ± 8.6", "unit": "U/L"},
      {"measurement": "CREA", "setting": "25 mg/kg", "result": "0.160 ± 0.02", "unit": "mg/dL"},
      {"measurement": "GGT", "setting": "25 mg/kg", "result": "<5", "unit": "U/L"},
      {"measurement": "LDH", "setting": "25 mg/kg", "result": "365.7 ± 77.9", "unit": "U/L"},
      {"measurement": "TBIL", "setting": "25 mg/kg", "result": "<0.01", "unit": "mg/dL"},
      {"measurement": "ALT", "setting": "50 mg/kg", "result": "71.7 ± 6.0", "unit": "U/L"},
      {"measurement": "AST", "setting": "50 mg/kg", "result": "52.0 ± 4.4", "unit": "U/L"},
      {"measurement": "BUN", "setting": "50 mg/kg", "result": "21.0 ± 2.0", "unit": "mg/dL"},
      {"measurement": "CK", "setting": "50 mg/kg", "result": "153.7 ± 33.9", "unit": "U/L"},
      {"measurement": "CREA", "setting": "50 mg/kg", "result": "0.180 ± 0.02", "unit": "mg/dL"},
      {"measurement": "GGT", "setting": "50 mg/kg", "result": "<5", "unit": "U/L"},
      {"measurement": "LDH", "setting": "50 mg/kg", "result": "481.5 ± 12.1", "unit": "U/L"},
      {"measurement": "TBIL", "setting": "50 mg/kg", "result": "<0.01", "unit": "mg/dL"},
      {"measurement": "kidney, liver or muscle functions (biomarker analysis, PBS vs UPI peptide-treated mice)", "setting": "Table 3", "result": "no statistical differences in kidney, liver or muscle functions"},
      {"measurement": "ALB", "setting": "10 mg/kg", "result": "1.98 ± 0.1"},
      {"measurement": "ALB", "setting": "25 mg/kg", "result": "2.0 ± 0.1"},
      {"measurement": "ALB", "setting": "50 mg/kg", "result": "2.2 ± 0.2"}
    ]}
  ]
}
